Test results: paper PMC10455904, “New Phocoenamicin and Maklamicin Analogues from Cultures of Three Marine-Derived Micromonospora Strains” (Marine Drugs, 2023)
In brackets after ≈: the same amount, converted by molar mass. Entries after “also recorded” stand apart in the source; their conditions may differ. Like-named read-outs stand apart in the source and are kept apart here.

Key:
in vitro = settings: human
[1] = system: Enterococcus faecium VANS 144754; assay: Antibacterial MIC assay against E. faecium; format: cell-based
[2] = system: Mycobacterium tuberculosis H37Ra (ATCC25177); assay: Antibacterial MIC assay against M. tuberculosis H37Ra; format: cell-based; settings: lowest concentration inhibiting ≥90% of growth
[3] = system: Neisseria gonorrhoeae ATCC49226; assay: Antibacterial MIC assay against N. gonorrhoeae; format: cell-based
[4] = system: Enterococcus faecalis VANS 144492; assay: Antibacterial MIC assay against E. faecalis; format: cell-based
[5] = system: methicillin-resistant Staphylococcus aureus (MRSA) MB5393; assay: Antibacterial MIC assay against MRSA MB5393; format: cell-based
[6] = system: human liver adenocarcinoma cell line (Hep G2); assay: MTT cytotoxicity assay, Hep G2; settings: for cytotoxicity (in words): Hep G2, in vitro
[7] = MTT cytotoxicity assay, Hep G2; settings: human
[8] = system: zebrafish eleuthero embryos; assay: Zebrafish eleuthero embryos toxicity assay (immersion); format: in vivo; settings: for developmental abnormalities: 25 μM, 48 h exposure, 5 dpf, representative larvae; for toxicity (lethality and sub-lethal toxicity): 3 dpf larvae, 48 h immersion, 1.6–25 μM, read at 5 dpf
Description: The compounds were dissolved in dimethyl sulfoxide (DMSO) and then diluted in the fish medium (Danieau) in which the 3 dpf zebrafish larvae were swimming for 48 h. The concentrations tested were 1.6, 3.13, 6.25, 12.5 and 25 μM for each of the three compounds. Vehicle-treated Control eleuthero embryos (VHC) were also treated with the same concentration of DMSO (0.5%) in fish medium to compare the possible effects of the compounds.
After the 48 h exposure, corresponding to 5 dpf larvae, the possible mortality, touch-stimulation response and developmental abnormalities were examined using a dissecting microscope coupled with a digital color camera and pictures were captured. Then, the score for the sub-lethal toxicity and lethality was determined for each fish and condition and the mean score was calculated. The assays were independently replicated three times, using 10 embryos for each condition and compound in each assay, and thus the total number of zebrafish embryos used was 480.
Each of the three compounds (3, 4 and 7) was dissolved in 100% dimethyl sulfoxide (DMSO, spectroscopy grade) and diluted in Danieau’s medium to a final concentration of 25 μΜ (0.5% DMSO), followed by ½ serial dilutions to provide five testing concentrations (1.6, 3.13, 6.25, 12.5 and 25 μM).
Next, 3 dpf zebrafish eleuthero embryos randomly selected were immersed in a 24-well plate containing the three compounds in the different testing concentrations (n = 10 larvae per well). At the same time, 10 Vehicle-treated Control eleuthero embryos (VHC) were also treated with 0.5% DMSO, in accordance with the final solvent concentration of testing compounds to compare the possible effects of the compounds. The eleuthero embryos were incubated under a 14/10 h light/dark cycle at 27–28 °C.
After the 48 h exposure, at 5 dpf, the lethality (cardiac rhythm and degraded body were used as clinical criteria) and touch-stimulation response were assessed using non-anesthetized eleuthero embryos, while the possible morphological defects were evaluated after anesthetizing the eleuthero embryos in 0.5 mM tricaine. All observations were performed using an M80 stereo microscope (Leica Microsystems, Danaher Co., Wetzlar, Germany) and pictures were captured with a Leica DFC310 FX digital color camera (Leica Microsystems, Danaher Co., Germany) and stored.
Mean score of lethality and sub-lethal toxicity per condition was calculated as follows: To each adverse effect observed (impaired motility, bad development, body curvature and swim bladder defects) a score of 1 was given (maximum 4 per larva), and a score of 6 to each dead embryo. The mean score was then calculated for all eleuthero embryos (pooled results) examined per condition, as performed before.
The results were obtained from three independent experiments, using ten larvae for each test concentration and compound. Statistical analysis was performed by using GraphPad Prism version 9.0 (GraphPad Software Inc., San Diego, CA, USA) and one-way analysis of variance (ANOVA) followed by Tukey’s multiple comparison test. The criterion for statistical significance was p < 0.05.

[9] = system: human liver adenocarcinoma cell line (Hep G2)
[10] = Enterococcus faecium, VANS144754
[11] = Mycobacterium tuberculosis, read-out: MIC
[12] = Neisseria gonorrhoeae, ATCC49226
[13] = Enterococcus faecalis, VANS144492
[14] = Enterococcus faecium, VANS144754, E. faecium VANS 144754, lowest concentration inhibiting ≥90% of growth, read-out: MIC
[15] = Neisseria gonorrhoeae, N. gonorrhoeae ATCC49226, lowest concentration inhibiting ≥90% of growth, read-out: MIC
[16] = Enterococcus faecalis, VANS144492, E. faecalis VANS 144492, lowest concentration inhibiting ≥90% of growth, read-out: MIC
[17] = Staphylococcus aureus, MRSA MB5393, lowest concentration inhibiting ≥90% of growth after overnight incubation, read-out: MIC

| Molecule | IC50 (in vitro) | MIC [2, 11] | MIC [1, 14] | MIC [3, 15] | MIC [4, 16] | MIC [5, 17] | further results |
| --- | --- | --- | --- | --- | --- | --- | --- |
| CC(=O)C(C)(O)C(O)CC1CC23OC(=O)C(=C2O)OC(=O)C2(C)C(C=CC4C(OC5OC(C)C(O)C(OC6OC(C)C(OC(=O)c7c(O)ccc(Cl)c7C)C(O)C6O)C5O)C(C)CC(C)C42)C(C)C=CCC3(C)C=C1CO (stereo not shown) [Compound 1, Phocoenamicin D] | > 58.8 µM | 58 µM (≈ 64 µg/mL) |  |  |  |  | MIC [1, 10]: ≥ 116 µM; MIC [3, 12]: > 116 µM; MIC [4, 13]: > 58 µM; MIC ([5]; Staphylococcus aureus, MRSA): 58 µM (≈ 64 µg/mL) |
| Cc1c(Cl)ccc(O)c1C(=O)O[C@H]1[C@H](O)[C@@H](O)[C@@H](O[C@@H]2[C@@H](O)[C@H](O[C@@H]3[C@H]4C=C[C@H]5[C@H](C)/C=C/C[C@]6(C)C=C(CO)[C@H](C[C@@H](C)O)C[C@]67OC(=O)C(=C7O)C(=O)[C@@]5(C)[C@@H]4[C@@H](C)C[C@H]3C)O[C@H](C)[C@H]2O)O[C@@H]1C [Compound 2, Phocoenamicin E] |  | 31.5 to 63 µM (≈ 32 to 64 µg/mL) | > 63 µM | > 126 µM | > 63 µM |  | cytotoxicity (in words) [6]: moderate activity; IC50 [7]: 21 µM; MIC ([5]; Staphylococcus aureus, MRSA): 31.5 to 63 µM (≈ 32 to 64 µg/mL) |
| CC(=O)[C@](C)(O)[C@@H](O)C[C@@H]1C[C@@]23OC(=O)C(=C2O)C(=O)[C@@]2(C)[C@H]4[C@H](C=C[C@H]2[C@H](C)/C=C/C[C@]3(C)C=C1C)[C@@H](O[C@@H]1O[C@H](C)[C@@H](O)[C@H](O[C@H]2O[C@H](C)[C@@H](OC(=O)c3c(O)ccc(Cl)c3C)[C@H](O)[C@H]2O)[C@H]1O)[C@H](C)C[C@@H]4C [Compound 3, phocoenamicin] |  | 7.5 µM (≈ 8.04 µg/mL) | 3.7 to 7.5 µM (≈ 3.97 to 8.04 µg/mL) | > 119 µM | 7.5 µM (≈ 8.04 µg/mL) | 3.7 µM (≈ 3.97 µg/mL) | IC50 [7]: > 58.8 µM; developmental abnormalities [8]: no developmental abnormalities; toxicity (lethality and sub-lethal toxicity) [8]: no toxicity; also recorded: not to be toxic |
| CC(=O)[C@](C)(O)[C@@H](O)C[C@@H]1C[C@@]23OC(=O)C(=C2O)C(=O)[C@@]2(C)[C@H]4[C@H](C=C[C@H]2[C@H](C)/C=C/C[C@]3(C)C=C1CO)[C@@H](O[C@@H]1O[C@H](C)[C@@H](O)[C@H](O[C@H]2O[C@H](C)[C@@H](OC(=O)c3c(O)ccc(Cl)c3C)[C@H](O)[C@H]2O)[C@H]1O)[C@H](C)C[C@@H]4C [Compound 4, phocoenamicin B] | 17.6 µM | 14.7 µM (≈ 16 µg/mL) |  |  |  |  | MIC [1, 10]: ≥ 58.8 µM; cytotoxicity (in words) [6]: moderate activity; MIC [3, 12]: > 118 µM; developmental abnormalities [8]: no developmental abnormalities; toxicity (lethality and sub-lethal toxicity) [8]: no toxicity; also recorded: not to be toxic; MIC [4, 13]: > 58.8 µM; MIC ([5]; Staphylococcus aureus, MRSA): 7.4 µM (≈ 8.05 µg/mL) |
| CC(=O)[C@](C)(O)[C@@H](O)C[C@@H]1C[C@@]23OC(=O)C(=C2O)OC(=O)[C@@]2(C)[C@H]4[C@H](C=C[C@H]2[C@H](C)/C=C/C[C@]3(C)C=C1C)[C@@H](O[C@@H]1O[C@H](C)[C@@H](O)[C@H](O[C@H]2O[C@H](C)[C@@H](OC(=O)c3c(O)ccc(Cl)c3C)[C@H](O)[C@H]2O)[C@H]1O)[C@H](C)C[C@@H]4C [Compound 5, phocoenamicin C] |  | 29.4 to 58.8 µM (≈ 32 to 64 µg/mL) | > 58.8 µM | > 58.8 µM | > 58.8 µM | 29.4 µM (≈ 32 µg/mL) | IC50 [7]: > 58.8 µM |
| CC1=CC2(C)CC=CC(C)C3C=CC4CC(C)CCC4C3(C)C(=O)C3=C(O)C2(CC1CC(C)O)OC3=O (stereo not shown) [Compound 6, Maklamicin B] | > 58.8 µM | 2 µM (≈ 1.02 µg/mL) | 1 µM (≈ 0.509 µg/mL) | > 252 µM | 62.9 µM (≈ 32 µg/mL) | 2 µM (≈ 1.02 µg/mL) |  |
| C[C@H]1CC[C@@H]2[C@H](C=C[C@H]3[C@H](C)/C=C/C[C@]4(C)C=C(CO)[C@H](C[C@@H](C)O)C[C@]45OC(=O)C(=C5O)C(=O)[C@@]23C)C1 [Compound 7, maklamicin] | 40.2 µM | 61 µM (≈ 32 µg/mL) | 1 µM (≈ 0.525 µg/mL) | > 244 µM | 1.9 µM (≈ 0.997 µg/mL) | < 0.5 µM | cytotoxicity (in words) [9]: moderate activity; toxicity (lethality and sub-lethal toxicity) [8]: no toxicity; also recorded: not to be toxic; MIC ([5]; MRSA MB5393, lowest concentration inhibiting ≥90% of growth after overnight incubation, read-out: MIC): <0.5 µM |
| COS(C)(=O)=O [MMS, Methyl methanesulfonate, reference compound] |  |  |  |  |  |  | cell death (positive control) ([6]; Hep G2, MTT, 2 mM): 100% |
| [H]/N=C(/N)N[C@H]1[C@H](O)[C@@H](O)[C@H](O[C@@H]2O[C@@H](C)[C@](O)(C=O)[C@H]2O[C@@H]2O[C@@H](CO)[C@H](O)[C@@H](O)[C@@H]2NC)[C@@H](N/C(N)=N\[H])[C@@H]1O [streptomycin, reference compound] |  | 2.8 to 5.4 µM (≈ 1.63 to 3.14 µg/mL) |  |  |  |  | MIC [2]: 2.8–5.4 (S) μM |
| CN[C@H](CC(C)C)C(=O)N[C@H]1C(=O)N[C@@H](CC(N)=O)C(=O)N[C@H]2C(=O)N[C@H]3C(=O)N[C@H](C(=O)N[C@H](C(=O)O)c4cc(O)cc(O)c4-c4cc3ccc4O)[C@H](O)c3ccc(c(Cl)c3)Oc3cc2cc(c3O[C@@H]2O[C@H](CO)[C@@H](O)[C@H](O)[C@H]2O[C@H]2C[C@](C)(N)[C@H](O)[C@H](C)O2)Oc2ccc(cc2Cl)[C@H]1O [vancomycin, reference compound] |  |  | 1.4 µM (≈ 2.03 µg/mL) |  | 1.4 µM (≈ 2.03 µg/mL) | 1.4 µM (≈ 2.03 µg/mL) | MIC ([1]; E. faecium VANS 144754, lowest concentration inhibiting ≥90% of growth): 1.4 (V) μM; MIC ([4]; E. faecalis VANS 144492, lowest concentration inhibiting ≥90% of growth): 1.4 (V) μM; MIC ([5]; MRSA MB5393, lowest concentration inhibiting ≥90% of growth after overnight incubation): 1.4 (V) μM |
| penicillin [reference compound] |  |  |  |  |  |  | MIC ([3]; N. gonorrhoeae ATCC49226, lowest concentration inhibiting ≥90% of growth): 5.6 (P) μM |
